Measured values reported in US20240124454A1, “TRICYCLIC COMPOUND AND USE THEREOF” (NANJING ZAIMING PHARMACEUTICAL CO., LTD., priority 2020, published 2024).
Like-named read-outs stand apart in the source and are kept apart here.

Biological target: MAT2A (Homo sapiens (Human), UniProt P31153)
Assay: MAT2A biochemical test (inorganic phosphate colorimetric, PiColorLock)
Settings: read-out: MAT2A inhibitory Activity IC50
Excerpt: Test Example 1. Biochemical Test
The brief introduction of the test principle: L-methionine and ATP can be converted into SAM, inorganic phosphate, and inorganic diphosphate under the catalysis of MAT2A enzymes. The content of inorganic phosphate in the sample can be quantitatively determined by adding a developer such as ammonium molybdate or the like to the enzymatic reaction mixture, thereby reflecting the enzymatic activity of MAT2A.
Reference: The experiment referred to the method disclosed in patent WO2018045071.
Material: MAT2A screening kits were purchased from BPS bioscience (U.S.); 384-well plates were purchased from Corning Company (U.S.). • 1. MAT2A protein (Pharmaron Beijing Co., Ltd.); • 2. L-methionine (Sigma #M9625-5G) • 3. ATP (Sigma #A7699-1G) • 4. KCl (Sigma #60142-500ML-F) • 5. Tris (Sigma #T2663-1L) • 6. MgCl2 (Sigma #M1028) • 7. EDTA (Invitrogen #AM9260G) • 8. BSA (Sangon Biotech #A500023-0100) • 9. PiColorLock (abcam #ab270004)
Detection method: In the experimental group, the test compound was dissolved in DMSO, diluted to a final concentration of 10 μM using Echo, and diluted 3-fold. 80 nL of the dilution was transferred to a 384-well plate.
The experimental buffer (50 mM Tris, 50 mM KCl, 15 mM MgCl2, 100 μM EDTA, 0.005% BSA) was prepared. The MAT2A protein was diluted with the experimental buffer (at final concentration of […]). 40 μL of 2×MAT2A solution was added to the 384-well plate. The plate was centrifuged at 1000 rpm for 1 min and incubated at room temperature for 120 min.
L-methionine and ATP (the final concentration of L-methionine was […] and the final concentration of ATP was 400 μM) were diluted with the experimental buffer. 40 μL of 2×L-methionine and ATP solution was added to initiate the reaction. The plate was centrifuged at 1000 rpm for 1 min and incubated at room temperature for 90 min.
The PiColorLock™ reaction catalyst was mixed with the PiColorLock™ buffer at a ratio of 1:100 according to the instructions. 20 μL was added to each well, and the plate was shaken for 30 s. 8 μL stabilizing reagent was added, and the plate was shaken for 30 s. The signal values were measured after 30 min of incubation at room temperature.
A negative control group and a positive control group were respectively used as Bottom and Top. The negative control group was not added with MAT2A protein, and other operations were consistent with those of the experimental group. The positive control group was not added with the test compound, only added with DMSO in the same volume, and other operations were consistent with those of the experimental group.
The % Compound inhibition was calculated and fitted to give the IC50 of the compound.
% Compound inhibition=1-100%×(Signal−Bottom)/(Top−Bottom).
Signal referred to the signal value of the experimental group, Bottom referred to the average signal value of the negative control group, and Top referred to the average signal value of the positive control group.
Under the condition of this experiment, the inhibitory effect of the test compound on MAT2A can be expressed as the IC50 of the inhibition on the phosphate production level during the enzymatic reaction.

MAT2A, sequence (P31153 whole entry): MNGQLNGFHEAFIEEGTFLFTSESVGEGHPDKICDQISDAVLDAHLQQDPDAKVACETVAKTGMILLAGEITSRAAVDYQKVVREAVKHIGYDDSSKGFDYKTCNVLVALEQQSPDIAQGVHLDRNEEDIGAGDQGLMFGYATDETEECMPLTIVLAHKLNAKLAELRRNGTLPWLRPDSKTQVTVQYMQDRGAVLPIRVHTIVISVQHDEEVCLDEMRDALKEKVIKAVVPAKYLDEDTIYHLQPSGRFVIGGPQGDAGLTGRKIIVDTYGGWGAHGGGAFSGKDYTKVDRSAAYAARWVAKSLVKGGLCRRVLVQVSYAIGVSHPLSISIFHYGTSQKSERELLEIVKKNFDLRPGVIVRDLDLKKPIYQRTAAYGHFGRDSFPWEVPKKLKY

Row | Compound | IC50 (class symbols) [nM] | IC50 (numeric values) [nM]
1 | Cc1ccccc1-n1c(=O)c2ncn(C)c2c2ccc(C(F)(F)F)nc21 [Compound 31, 1-methyl-5-(2-methylphenyl)-7-(trifluoromethyl)-1,5-dihydro-4H-imidazo[4,5-c][1,8]naphthyridin-4-one] | 100 to 500 | 159
2 | Cn1cnc2c(=O)n(-c3ccc(F)cc3Cl)c3nc(C(F)(F)F)ccc3c21 [Compound 32, 5-(2-chloro-4-fluorophenyl)-1-methyl-7-(trifluoromethyl)-1,5-dihydro-4H-imidazo[4,5-c][1,8]naphthyridin-4-one] | 100 to 500 | 119
3 | O=c1c2ocnc2c2ccc(C(F)(F)F)nc2n1-c1ccccc1Cl [Compound 51, 5-(2-chlorophenyl)-7-(trifluoromethyl)oxazolo[5,4-c][1,8]naphthyridin-4(5H)-one] | 100 to 500 | 182
4 | Cc1ccc2c3c(ncn3C)c(=O)n(-c3ccccc3Cl)c2n1 [Compound 56, 5-(2-chlorophenyl)-1,7-dimethyl-1,5-dihydro-4H-imidazo[4,5-c][1,8]naphthyridin-4-one] | < 100 | 73.7
5 | COc1ccc(-n2c(=O)c3ncn(C)c3c3ccc(C(F)(F)F)nc32)cc1 [Compound 59, 5-(4-methoxyphenyl)-1-methyl-7-(trifluoromethyl)-1,5-dihydro-4H-imidazo[4,5-c][1,8]naphthyridin-4-one] | 100 to 500 | 252
6 | Cn1nccc1-n1c(=O)c2ncn(C)c2c2ccc(C(F)(F)F)nc21 [Compound 60, 1-methyl-5-(1-methyl-1H-pyrazol-5-yl)-7-(trifluoromethyl)-1,5-dihydro-4H-imidazo[4,5-c][1,8]naphthyridin-4(5H)-one] | 100 to 500 | 
7 | CCn1cnc2c(=O)n(-c3ccccc3Cl)c3nc(C(F)(F)F)ccc3c21 [Compound 61, 5-(2-chlorophenyl)-1-ethyl-7-(trifluoromethyl)-1,5-dihydro-4H-imidazo[4,5-c][1,8]naphthyridin-4-one] | 100 to 500 | 102
8 | Cn1cnc2c(=O)n(-c3ccc(Cl)cc3Cl)c3nc(C(F)(F)F)ccc3c21 [Compound 62, 5-(2,4-dichlorophenyl)-1-methyl-7-(trifluoromethyl)-1,5-dihydro-4H-imidazo[4,5-c][1,8]naphthyridin-4-one] | 100 to 500 | 251
9 | Cn1cnc2c(=O)n(-c3cccc(F)c3)c3nc(C(F)(F)F)ccc3c21 [Compound 63, 5-(3-fluorophenyl)-1-methyl-7-(trifluoromethyl)-1,5-dihydro-4H-imidazo[4,5-c][1,8]naphthyridin-4-one] | < 100 | 48.1
10 | Cn1cnc2c(=O)n(-c3cccc(F)c3Cl)c3cc(C(F)(F)F)ccc3c21 [Compound 66, 5-(2-chloro-3-fluorophenyl)-1-methyl-7-(trifluoromethyl)-1,5-dihydro-4H-imidazo[4,5-c]quinolin-4-one] | < 100 | 47.3
11 | Cn1cnc2c(=O)n(-c3ccc(OC(F)F)cn3)c3nc(C(F)(F)F)ccc3c21 [Compound 69, 5-(5-(difluoromethoxy)pyridin-2-yl)-1-methyl-7-(trifluoromethyl)-1,5-dihydro-4H-imidazo[4,5-c][1,8]naphthyridin-4-one] | 100 to 500 | 282
12 | Cn1cnc2c(=O)n(-c3ccc(OC(F)F)c(F)c3)c3nc(C(F)(F)F)ccc3c21 [Compound 71, 5-[4-(difluoromethoxy)-3-fluorophenyl]-1-methyl-7-(trifluoromethyl)-1,5-dihydro-4H-imidazo[4,5-c][1,8]naphthyridin-4-one] | 500 to 1000 | 978
13 | Cc1ncccc1-n1c(=O)c2ncn(Cc3cnn(C)c3)c2c2ccc(C(F)(F)F)nc21 [Compound 74, 1-((1-methyl-1H-pyrazol-4-yl)methyl)-5-(2-methylpyridin-3-yl)-7-(trifluoromethyl)-1,5-dihydro-4H-imidazo[4,5-c][1,8]naphthyridin-4-one] | 100 to 500 | 140
14 | Cc1ncccc1-n1c(=O)c2ncn(C)c2c2cnc(C(F)(F)F)nc21 [Compound 75, 1-methyl-5-(2-methylpyridin-3-yl)-7-(trifluoromethyl)-1,5-dihydro-4H-imidazo[4′,5′:4,5]pyrido[2,3-d]pyrimidin-4-one] | < 100 | 71.7
15 | Cn1cnc2c(=O)n(-c3cncnc3)c3nc(C(F)(F)F)ccc3c21 [Compound 76, 1-methyl-5-(pyrimidin-5-yl)-7-(trifluoromethyl)-1,5-dihydro-4H-imidazo[4,5-c][1,8]naphthyridin-4-one] | 100 to 500 | 201
16 | Cn1cnc2c(=O)n(-c3cnccn3)c3nc(C(F)(F)F)ccc3c21 [Compound 77, 1-methyl-5-(pyrazin-2-yl)-7-(trifluoromethyl)-1,5-dihydro-4H-imidazo[4,5-c][1,8]naphthyridin-4-one] | 100 to 500 | 337

Next, values leading:

Row | IC50 (class symbols) [nM] | IC50 (numeric values) [nM] | Compound
17 | 100 to 500 | 135 | Cn1cnc2c(=O)n(-c3c(F)cccc3Cl)c3nc(C(F)(F)F)ccc3c21 [Compound 26, 5-(2-chloro-6-fluorophenyl)-1-methyl-7-(trifluoromethyl)-1,5-dihydro-4H-imidazo[4,5-c][1,8]naphthyridin-4-one]
18 | 500 to 1000 | 819 | Cc1cnccc1-n1c(=O)c2ncn(C)c2c2ccc(C(F)(F)F)nc21 [Compound 27, 1-methyl-5-(3-methylpyridin-4-yl)-7-(trifluoromethyl)-1,5-dihydro-4H-imidazo[4,5-c][1,8]naphthyridin-4-one]
19 | 100 to 500 | 165 | Cc1ccncc1-n1c(=O)c2ncn(C)c2c2ccc(C(F)(F)F)nc21 [Compound 28, 1-methyl-5-(4-methylpyridin-3-yl)-7-(trifluoromethyl)-1,5-dihydro-4H-imidazo[4,5-c][1,8]naphthyridin-4-one]
20 | < 100 | 67.6 | COc1ccccc1-n1c(=O)c2ncn(C)c2c2ccc(C(F)(F)F)nc21 [Compound 33, 5-(2-methoxyphenyl)-1-methyl-7-(trifluoromethyl)-1,5-dihydro-4H-imidazo[4,5-c][1,8]naphthyridin-4-one]
21 | < 100 | 73.1 | CC(C)c1ccccc1-n1c(=O)c2ncn(C)c2c2ccc(C(F)(F)F)nc21 [Compound 34, 5-(2-isopropylphenyl)-1-methyl-7-(trifluoromethyl)-1,5-dihydro-4H-imidazo[4,5-c][1,8]naphthyridin-4-one]
22 | 100 to 500 | 113 | O=c1c2ncn(CCO)c2c2ccc(C(F)(F)F)nc2n1-c1ccccc1Cl [Compound 50, 5-(2-chlorophenyl)-1-(2-hydroxyethyl)-7-(trifluoromethyl)-1,5-dihydro-4H-imidazo[4,5-c][1,8]naphthyridin-4-one]
23 | < 100 | 47.2 | Cn1cnc2c(=O)n(-c3cccc(C#N)c3)c3nc(C(F)(F)F)ccc3c21 [Compound 52, 3-(1-methyl-4-oxo-7-(trifluoromethyl)-1,4-dihydro-5H-imidazo[4,5-c][1,8]naphthyridin-5-yl)benzonitrile]
24 | 100 to 500 | 314 | CN(C)CCn1cnc2c(=O)n(-c3ccccc3Cl)c3nc(C(F)(F)F)ccc3c21 [Compound 53, 5-(2-chlorophenyl)-1-(2-(dimethylamino)ethyl)-7-(trifluoromethyl)-1,5-dihydro-4H-imidazo[4,5-c][1,8]naphthyridin-4-one]
25 | 500 to 1000 | 530 | CNCCn1cnc2c(=O)n(-c3ccccc3Cl)c3nc(C(F)(F)F)ccc3c21 [Compound 54, 5-(2-chlorophenyl)-1-(2-(methylamino)ethyl)-7-(trifluoromethyl)-1,5-dihydro-4H-imidazo[4,5-c][1,8]naphthyridin-4-one]
26 | 100 to 500 | 296 | NCCn1cnc2c(=O)n(-c3ccccc3Cl)c3nc(C(F)(F)F)ccc3c21 [Compound 55, 1-(2-aminoethyl)-5-(2-chlorophenyl)-7-(trifluoromethyl)-1,5-dihydro-4H-imidazo[4,5-c][1,8]naphthyridin-4-one]
